Species: Rattus norvegicus
Test: DrugMatrix - Regimen: Daily Repeat
Assay type: toxicity, organism-based, Sprague-Dawley
Set-up: regimen Daily Repeat, gender Male, age 6-8 weeks
Settings: in vivo, po, route oral GAVAGE, vehicle .5 % CMC; for ABSOLUTE BASOPHIL / ABSOLUTE EOSINOPHIL / ABSOLUTE MONOCYTE / ABSOLUTE SEGMENTED NEUTROPHIL / BASOPHIL / EOSINOPHIL / ERYTHROCYTE COUNT / HEMATOCRIT / HEMOGLOBIN / LEUKOCYTE COUNT / LYMPHOCYTE / MEAN CORPUSCULAR HEMOGLOBIN / MEAN CORPUSCULAR HEMOGLOBIN CONCENTRATION / MEAN CORPUSCULAR VOLUME / MONOCYTE / NEUTROPHIL / NUCLEATED RED BLOOD CELLS / PLATELET COUNT: tissue Blood; for ALANINE AMINOTRANSFERASE / ALBUMIN / ALKALINE PHOSPHATASE / ASPARTATE AMINOTRANSFERASE / BLOOD UREA NITROGEN / CARBON DIOXIDE / CHLORIDE / CHOLESTEROL / CREATINE PHOSPHOKINASE / CREATININE / GLUCOSE / LACTATE DEHYDROGENASE / LIPASE / PHOSPHORUS / POTASSIUM / SODIUM / TOTAL BILIRUBIN / TOTAL PROTEIN / URIC ACID: tissue Plasma
[1] = 0 mg/kg, 72 h, dose level Control, time 3 day
[2] = 0 mg/kg, 120 h, dose level Control, time 5 day
[3] = […], 72 h, dose 6.5 mg/Kg, dose level Low, time 3 day
[4] = […], 120 h, dose 6.5 mg/Kg, dose level Low, time 5 day

CN(C)CCOC(c1ccccc1)c1ccccc1.Cn1c(=O)c2[nH]c(Cl)nc2n(C)c1=O [DIMENHYDRINATE]
ABSOLUTE BASOPHIL [1]: 0 CELLS/uL | ABSOLUTE EOSINOPHIL [1]: 32.5 CELLS/uL | ABSOLUTE MONOCYTE [1]: 474 CELLS/uL | ABSOLUTE SEGMENTED NEUTROPHIL [1]: 1932.67 CELLS/uL | BASOPHIL [1]: 0% | EOSINOPHIL [1]: 0.17% | ERYTHROCYTE COUNT [1]: 5.45 x10E6/uL | HEMATOCRIT [1]: 34.32% | HEMOGLOBIN [1]: 13.82 G/DL | LEUKOCYTE COUNT [1]: 15.93 x10E3/uL | LYMPHOCYTE [1]: 84.83% | MEAN CORPUSCULAR HEMOGLOBIN [1]: 25.38 pg | MEAN CORPUSCULAR HEMOGLOBIN CONCENTRATION [1]: 40.27 G/DL | MEAN CORPUSCULAR VOLUME [1]: 63.05 fL | MONOCYTE [1]: 3% | NEUTROPHIL [1]: 12% | NUCLEATED RED BLOOD CELLS [1]: 0.67 /100WBC | PLATELET COUNT [1]: 1188.5 x10E3/uL | ALANINE AMINOTRANSFERASE [1]: 54.83 u/L | ALBUMIN [1]: 4.22 G/DL | ALKALINE PHOSPHATASE [1]: 427.67 u/L | ASPARTATE AMINOTRANSFERASE [1]: 86.5 u/L | BLOOD UREA NITROGEN [1]: 15.33 mg/dL | CARBON DIOXIDE [1]: 24.83 mmol/L | CHLORIDE [1]: 102.33 MEQ/L | CHOLESTEROL [1]: 71.67 mg/dL | CREATINE PHOSPHOKINASE [1]: 442.5 u/L | CREATININE [1]: 0.19 mg/dL | GLUCOSE [1]: 160.67 mg/dL | LACTATE DEHYDROGENASE [1]: 236.5 u/L | LIPASE [1]: 9 u/L | PHOSPHORUS [1]: 11.97 mg/dL | POTASSIUM [1]: 6.2 MEQ/L | SODIUM [1]: 142.85 MEQ/L | TOTAL BILIRUBIN [1]: 0.2 mg/dL | TOTAL PROTEIN [1]: 5.8 G/DL | URIC ACID [1]: 1.3 mg/dL | ABSOLUTE BASOPHIL [2]: 0 CELLS/uL | ABSOLUTE EOSINOPHIL [2]: 114.5 CELLS/uL | ABSOLUTE MONOCYTE [2]: 173 CELLS/uL | ABSOLUTE SEGMENTED NEUTROPHIL [2]: 1048.5 CELLS/uL | BASOPHIL [2]: 0% | EOSINOPHIL [2]: 0.67% | ERYTHROCYTE COUNT [2]: 5.66 x10E6/uL | HEMATOCRIT [2]: 35.52% | HEMOGLOBIN [2]: 14.27 G/DL | LEUKOCYTE COUNT [2]: 15.95 x10E3/uL | LYMPHOCYTE [2]: 91.33% | MEAN CORPUSCULAR HEMOGLOBIN [2]: 25.23 pg | MEAN CORPUSCULAR HEMOGLOBIN CONCENTRATION [2]: 40.2 G/DL | MEAN CORPUSCULAR VOLUME [2]: 62.7 fL | MONOCYTE [2]: 1.17% | NEUTROPHIL [2]: 6.83% | NUCLEATED RED BLOOD CELLS [2]: 0.33 /100WBC | PLATELET COUNT [2]: 1229 x10E3/uL | ALANINE AMINOTRANSFERASE [2]: 58.67 u/L | ALBUMIN [2]: 4.32 G/DL | ALKALINE PHOSPHATASE [2]: 382.5 u/L | ASPARTATE AMINOTRANSFERASE [2]: 81.67 u/L | BLOOD UREA NITROGEN [2]: 17.67 mg/dL | CARBON DIOXIDE [2]: 27.17 mmol/L | CHLORIDE [2]: 102.33 MEQ/L | CHOLESTEROL [2]: 63.67 mg/dL | CREATINE PHOSPHOKINASE [2]: 227.67 u/L | CREATININE [2]: 0.23 mg/dL | GLUCOSE [2]: 155.33 mg/dL | LACTATE DEHYDROGENASE [2]: 146.5 u/L | LIPASE [2]: 10.67 u/L | PHOSPHORUS [2]: 11.93 mg/dL | POTASSIUM [2]: 6.85 MEQ/L | SODIUM [2]: 143.95 MEQ/L | TOTAL BILIRUBIN [2]: 0.18 mg/dL | TOTAL PROTEIN [2]: 6.02 G/DL | URIC ACID [2]: 1.63 mg/dL | ABSOLUTE BASOPHIL [3]: 0 CELLS/uL | ABSOLUTE EOSINOPHIL [3]: 46.67 CELLS/uL | ABSOLUTE MONOCYTE [3]: 474 CELLS/uL | ABSOLUTE SEGMENTED NEUTROPHIL [3]: 1911.67 CELLS/uL | BASOPHIL [3]: 0% | EOSINOPHIL [3]: 0.33% | ERYTHROCYTE COUNT [3]: 5.67 x10E6/uL | HEMATOCRIT [3]: 35.5% | HEMOGLOBIN [3]: 13.93 G/DL | LEUKOCYTE COUNT [3]: 14.93 x10E3/uL | LYMPHOCYTE [3]: 84% | MEAN CORPUSCULAR HEMOGLOBIN [3]: 24.57 pg | MEAN CORPUSCULAR HEMOGLOBIN CONCENTRATION [3]: 39.27 G/DL | MEAN CORPUSCULAR VOLUME [3]: 62.6 fL | MONOCYTE [3]: 3% | NEUTROPHIL [3]: 12.67% | NUCLEATED RED BLOOD CELLS [3]: 0 /100WBC | PLATELET COUNT [3]: 1199.33 x10E3/uL | ALANINE AMINOTRANSFERASE [3]: 47.67 u/L | ALBUMIN [3]: 4.03 G/DL | ALKALINE PHOSPHATASE [3]: 343 u/L | ASPARTATE AMINOTRANSFERASE [3]: 87 u/L | BLOOD UREA NITROGEN [3]: 15 mg/dL | CARBON DIOXIDE [3]: 25.67 mmol/L | CHLORIDE [3]: 102 MEQ/L | CHOLESTEROL [3]: 75.33 mg/dL | CREATINE PHOSPHOKINASE [3]: 266 u/L | CREATININE [3]: 0.14 mg/dL | GLUCOSE [3]: 167.33 mg/dL | LACTATE DEHYDROGENASE [3]: 166 u/L | LIPASE [3]: 9.33 u/L | PHOSPHORUS [3]: 12.2 mg/dL | POTASSIUM [3]: 6.53 MEQ/L | SODIUM [3]: 144.67 MEQ/L | TOTAL BILIRUBIN [3]: 0.2 mg/dL | TOTAL PROTEIN [3]: 5.6 G/DL | URIC ACID [3]: 1.57 mg/dL | ABSOLUTE BASOPHIL [4]: 0 CELLS/uL | ABSOLUTE EOSINOPHIL [4]: 108.67 CELLS/uL | ABSOLUTE MONOCYTE [4]: 85.67 CELLS/uL | ABSOLUTE SEGMENTED NEUTROPHIL [4]: 1586.67 CELLS/uL | BASOPHIL [4]: 0% | EOSINOPHIL [4]: 0.67% | ERYTHROCYTE COUNT [4]: 5.47 x10E6/uL | HEMATOCRIT [4]: 34.93% | HEMOGLOBIN [4]: 14.13 G/DL | LEUKOCYTE COUNT [4]: 19.43 x10E3/uL | LYMPHOCYTE [4]: 91.67% | MEAN CORPUSCULAR HEMOGLOBIN [4]: 25.8 pg | MEAN CORPUSCULAR HEMOGLOBIN CONCENTRATION [4]: 40.47 G/DL | MEAN CORPUSCULAR VOLUME [4]: 63.8 fL | MONOCYTE [4]: 0.33% | NEUTROPHIL [4]: 7.33% | NUCLEATED RED BLOOD CELLS [4]: 0 /100WBC | PLATELET COUNT [4]: 1543 x10E3/uL | ALANINE AMINOTRANSFERASE [4]: 48.67 u/L | ALBUMIN [4]: 4.17 G/DL | ALKALINE PHOSPHATASE [4]: 266.33 u/L | ASPARTATE AMINOTRANSFERASE [4]: 77.33 u/L | BLOOD UREA NITROGEN [4]: 18.67 mg/dL | CARBON DIOXIDE [4]: 25 mmol/L | CHLORIDE [4]: 96 MEQ/L | CHOLESTEROL [4]: 71.33 mg/dL | CREATINE PHOSPHOKINASE [4]: 225.67 u/L | CREATININE [4]: 0.2 mg/dL | GLUCOSE [4]: 159 mg/dL | LACTATE DEHYDROGENASE [4]: 96.67 u/L | LIPASE [4]: 10 u/L | PHOSPHORUS [4]: 13.07 mg/dL | POTASSIUM [4]: 6.62 MEQ/L | SODIUM [4]: 135.4 MEQ/L | TOTAL BILIRUBIN [4]: 0.13 mg/dL | TOTAL PROTEIN [4]: 5.8 G/DL | URIC ACID [4]: 2.27 mg/dL

— ChEMBL document CHEMBL3885881, “DrugMatrix”
